Source: US8686144B2, “Condensed pyridine derivatives useful as potent inhibitors of the protein kinase CK2” (Commissariat a l'Energie Atomique et aux Energie Alternative, priority 2009, dated 2014)

Tests used:
c-Kit = molecular target: T1, c-Kit (Homo sapiens, UniProt P10721); test: c-kit kinase activity assay (Millipore 14-559); assay type: biochemical; settings: 10 μM compound
T1 construct: purchased Millipore 14-559
Procedure: (§1) 1. Materials and Methods • Effect of compounds of formula (I) on CK2 activity is measured according to Prudent et al. (Prudent, R. et al. (2008) Mol Cell Biochem 316(1-2): 71-85): compounds were tested in a radioactive assay performed in a final volume of 18 μL containing 3 μL of compounds at the indicated concentrations, 3 μL, of CK2α (36 ng) and a mixture containing 100 μM of peptide substrate ([…], SEQ ID No: 1), 10 mM MgCl2, and 100 μM [γ-^32P]-ATP. Assays were performed at room temperature for 5 min before termination by the addition of 60 μL of 4% TCA. ^32P incorporation into the peptide substrate was determined as previously described in Filhol et al. (Biochemistry 29: 9928-36, 1990). • Effect of compounds of formula (I) on c-kit activity is measured according to the manufacturer's recommendations (Millipore, reference 14-559): in a final reaction volume of 25 μL, c-Kit (5-10 mU) is incubated with 8 mM MOPS pH 7.0, 0.2 mM EDTA, 10 mM MnCl2, 25 μM ATP, 0.1 mg/mL poly(Glu, Tyr) 4:1, 10 mM MgAcetate and [γ-33P-ATP] […] Following an incubation of 30 minutes at 37° C., reaction mixture is resolved on an agarose gel (1% agarose) and DNA topoisomers are quantified by densitometric analysis. • Effect of compounds of formula (I) on DNA intercalation. DNA intercalation was performed using FID (Fluorescence Intercalator Displacement). […] In this assay, compound auto-fluorescence was negative.

CK2α = CK2α (Homo sapiens, UniProt P68400); test: CK2 radioactive kinase assay (32P incorporation into peptide substrate); assay type: biochemical; settings: 100 μM ATP; for % remaining CK2 activity (10 μM): 10 μM compound
Procedure: 1. Materials and Methods • Effect of compounds of formula (I) on CK2 activity is measured according to Prudent et al. (Prudent, R. et al. (2008) Mol Cell Biochem 316(1-2): 71-85): compounds were tested in a radioactive assay performed in a final volume of 18 μL containing 3 μL of compounds at the indicated concentrations, 3 μL, of CK2α (36 ng) and a mixture containing 100 μM of peptide substrate ([…], SEQ ID No: 1), 10 mM MgCl2, and 100 μM [γ-^32P]-ATP. Assays were performed at room temperature for 5 min before termination by the addition of 60 μL of 4% TCA. ^32P incorporation into the peptide substrate was determined as previously described in Filhol et al. (Biochemistry 29: 9928-36, 1990). • Effect of compounds of formula (I) on c-kit activity is measured according to the manufacturer's recommendations (Millipore, reference 14-559): in a final reaction volume of 25 μL, c-Kit (5-10 mU) is incubated with 8 mM MOPS pH 7.0, 0.2 mM EDTA, 10 mM MnCl2, 25 μM ATP, 0.1 mg/mL poly(Glu, Tyr) 4:1, 10 mM MgAcetate and [γ-33P-ATP] (specific activity approx. 500 cpm/pmol, concentration as required). The reaction is initiated by the addition of the MgATP mix. After incubation for 40 minutes at room temperature, the reaction is stopped by the addition of 5 μL of a 3% phosphoric acid solution. 10 μL of the reaction is then spotted onto a Filtermat A and washed three times for 5 minutes in 75 mM phosphoric acid and once in methanol prior to drying and scintillation counting. • Effect of compounds of formula (I) on topoisomerase II activity is measured according to the manufacturer's recommendations (Vaxron, TA-001): in a final reaction volume of 10 μL, 1U topoisomerase IIα is incubated with 0.1M Tris-HCl, pH 8.0, 2 mM DTT, 20 mM MgCl2, 4 mM ATP, 0.2 M NaCl, 2 μg BSA, 500 ng Kinetoplast DNA and compounds to be assayed (from 10 mM stock solution in DMSO, final concentration of DMSO<1%). The reaction is initiated by the addition of topoisomerase IIα. After incubation for 15 min at 37° C., reaction is stopped by addition of 1 μL of stop solution (3% SDS, 1.5 mg·mL^−1 Proteinase K). Following an incubation of 30 minutes at 37° C., reaction mixture is resolved on an agarose gel (1% agarose) and DNA topoisomers are quantified by densitometric analysis. • Effect of compounds of formula (I) on DNA intercalation. DNA intercalation was performed using FID (Fluorescence Intercalator Displacement). This assay based on the loss of fluorescence of a DNA-bound intercalator (thiazole orange) upon displacement by a DNA-binding molecule. Briefly, the double stranded oligonucleotide […] […] After 20 minutes incubation, fluorescence is measured (excitation: 490 nm, emission: 520 nm). In this assay, compound auto-fluorescence was negative.

U373 cells [1] = test: cell cycle distribution analysis (propidium iodide), U373; assay type: cell-based, human; settings: 5 μM, 24 hours
Procedure: (§2) Cells previously treated with Compound 1 and Compound 2 in example 4 are then submitted to a cell cycle analysis following propidium iodide incorportation.
(§3) Cell cycle distribution analysis: cells were plated in 6-well plates. The following day, cells were treated with 5 μM compounds or an equivalent amount of DMSO. After 24 hours, cells were harvested, fixed with ethanol 70% for 30 minutes, and labeled with propidium iodide 10 μg/mL for 30 min. DNA content was analysed with FACScalibur and Cell Quest software.

U373 cells [2] = test: inhibition of U373 cell proliferation (CellTiter-Glo viability); assay type: cell-based, human; settings: 5 μM, 48 hours treatment, FIG. 4
Procedure: (§4) 1. […] The following day, the culture medium was replaced with fresh medium (Dulbecco's medium, Invitrogen Life Technologies, Inc., supplemented with 10% (v/v) fetal calf serum (FBS, BioWest)), containing increasing concentration of inhibitors or an equivalent amount of DMSO as control. Two days later, cell viability was measured with the CellTiter-Glo® Luminescent Cell Viability Assay (Promega) according to the manufacturer recommendations. • The inhibition of U373 cells proliferation is assessed with the same protocol that HeLa cells: one day after plating, U373 cells are treated with 5 μM of Compound 1, Compound 2 or DMSO. Results are given relative to the luminescence recorded for DMSO.

HeLa cells [3] = test: cell cycle distribution analysis (propidium iodide), HeLa; assay type: cell-based, human; settings: 5 μM, 24 hours
Procedure: as §2, §3

CK2 = test: cellular CK2 activity assay (YFP-based CK2 activity reporter in HeLa cells); assay type: cell-based, human; settings: 24 hours incubation, FIGS. 2A and 2B
Procedure: Cellular CK2 activity assay: The plasmid pEYFPc1 expressing a chimeric YFP-based CK2 activity reporter was designed by adding six CK2 consensus phosphorylation sites at the C terminus of the YFP protein (pEYFPc1-SβS). pEYFPc1-SβS was obtained from pEYFPc1-CK2β after two subsequent rounds of mutations with the Quickchange-Site Directed mutagenesis kit (Stratagene) using for mutagenesis 1:
Then, the cells were collected and the washed pellets were solubilized for […] in ice with 100μΛ of lysis buffer (Tris 50 mM pH=7.4, 0.15 M NaCl, EDTA 2 mM, Triton X100 1/100, phosphatase inhibitor cocktail 2 (Sigma) 1/100, and leupeptine, aprotinine, AEBSF according to the manufacturer recommendations).

HeLa cells [4] = test: inhibition of HeLa cell proliferation (CellTiter-Glo viability); assay type: cell-based, human; settings: 48 hours treatment, FIG. 3
Procedure: as §4

topoisomerase IIα = molecular target: T2, topoisomerase IIα (Homo sapiens, UniProt P11388); test: topoisomerase II activity assay (kinetoplast DNA, Vaxron TA-001); assay type: biochemical; settings: 10 μM compound
T2 construct: purchased Vaxron TA-001
Procedure: as §1

[5] = system: double stranded oligonucleotide CAATCGGATCGAATTCGATCCGATTG; test: DNA intercalation by FID (Fluorescence Intercalator Displacement, thiazole orange); assay type: binding; settings: 10 μM compound
Procedure: as §1

U373 cells [6] = test: colony formation assay by soft agar culture; assay type: cell-based; settings: Homo sapiens, U373 MG, 360 h, 15 days
Procedure: The effect of compound on tumor cell tumorigenesis is tested on a colony formation assay.
The inhibition of colony formation assay by soft agar culture is performed as follows: U373 cells were poured on a 0.6% agar-DMEM-10% FBS layer, imbedded in 0.3% agar-DMEM-10% FBS, containing compounds (5 μM) or equivalent amount of DMSO. Number of colonies (more than 20 cells) was counted 15 days later in 10 fields/well. Experiment was done in duplicate at least twice.

U373 cells [7] = test: in vivo inhibition of tumour growth, U373 xenograft in athymic nude mice
Procedure: All experimental procedures adhered to local ethical committee (Comité régional d'éthique pour l'Expérimentation animale CREEA, Rhône Alpes—protocol n°286). Female Harlan athymic nude mice (6-8 weeks) were inoculated s.c. into the right flank with 7.5×10^5 U373 cells. When tumors reaches±50 mm^3 (volume=length×width×height), animals were treated i.p. 3 times weekly (every two days) for 2 weeks, with Compound 1 (0.14 mg/100 μL/injection-4 mice) dissolved in PEG3350 22.5%, BSA 0.45% or equivalent DMSO (10% final-3 mice) dissolved in same buffer (control group). Body weight and tumor volume were determined twice weekly. The experiment was terminated when tumor volume was about 1000 mm^3. Results are presented as mean±standard error of the mean (SEM).

Chain of CK2α (P68400 whole entry): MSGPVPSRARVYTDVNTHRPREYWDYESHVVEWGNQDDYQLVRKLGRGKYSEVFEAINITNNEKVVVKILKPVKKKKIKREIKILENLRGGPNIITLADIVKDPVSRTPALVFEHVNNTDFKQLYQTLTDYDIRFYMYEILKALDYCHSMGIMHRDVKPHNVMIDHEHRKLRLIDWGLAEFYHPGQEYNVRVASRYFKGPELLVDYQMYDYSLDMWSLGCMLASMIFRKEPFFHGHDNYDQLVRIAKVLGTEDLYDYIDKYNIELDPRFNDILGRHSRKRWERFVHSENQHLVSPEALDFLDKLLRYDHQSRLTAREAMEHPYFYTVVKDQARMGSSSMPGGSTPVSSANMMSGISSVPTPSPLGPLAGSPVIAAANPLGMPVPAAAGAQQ
T1 sequence (P10721 26-976): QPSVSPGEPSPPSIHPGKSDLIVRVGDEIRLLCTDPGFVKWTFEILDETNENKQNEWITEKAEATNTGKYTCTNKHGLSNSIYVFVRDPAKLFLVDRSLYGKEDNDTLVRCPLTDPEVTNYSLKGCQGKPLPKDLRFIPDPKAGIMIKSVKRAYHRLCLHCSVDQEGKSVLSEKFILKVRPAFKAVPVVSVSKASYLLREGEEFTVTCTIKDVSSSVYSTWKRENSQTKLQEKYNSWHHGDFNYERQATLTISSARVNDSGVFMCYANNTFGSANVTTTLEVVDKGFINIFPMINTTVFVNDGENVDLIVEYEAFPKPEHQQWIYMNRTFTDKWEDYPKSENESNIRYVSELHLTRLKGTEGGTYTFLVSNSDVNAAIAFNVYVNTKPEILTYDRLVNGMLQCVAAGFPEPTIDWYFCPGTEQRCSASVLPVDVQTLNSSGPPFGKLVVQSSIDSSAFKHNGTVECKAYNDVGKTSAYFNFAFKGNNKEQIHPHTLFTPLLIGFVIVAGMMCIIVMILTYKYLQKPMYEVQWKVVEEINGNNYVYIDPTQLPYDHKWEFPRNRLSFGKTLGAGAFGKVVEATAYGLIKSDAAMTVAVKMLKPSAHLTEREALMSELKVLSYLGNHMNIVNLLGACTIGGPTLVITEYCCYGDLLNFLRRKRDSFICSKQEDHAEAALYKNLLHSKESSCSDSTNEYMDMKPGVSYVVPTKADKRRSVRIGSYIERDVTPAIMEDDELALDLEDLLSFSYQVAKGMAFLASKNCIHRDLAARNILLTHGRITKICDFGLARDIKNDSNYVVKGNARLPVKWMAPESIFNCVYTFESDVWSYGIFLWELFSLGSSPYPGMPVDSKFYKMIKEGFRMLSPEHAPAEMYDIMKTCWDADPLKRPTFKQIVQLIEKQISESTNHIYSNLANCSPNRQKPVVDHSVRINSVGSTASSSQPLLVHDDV
T2 sequence (P11388 whole entry): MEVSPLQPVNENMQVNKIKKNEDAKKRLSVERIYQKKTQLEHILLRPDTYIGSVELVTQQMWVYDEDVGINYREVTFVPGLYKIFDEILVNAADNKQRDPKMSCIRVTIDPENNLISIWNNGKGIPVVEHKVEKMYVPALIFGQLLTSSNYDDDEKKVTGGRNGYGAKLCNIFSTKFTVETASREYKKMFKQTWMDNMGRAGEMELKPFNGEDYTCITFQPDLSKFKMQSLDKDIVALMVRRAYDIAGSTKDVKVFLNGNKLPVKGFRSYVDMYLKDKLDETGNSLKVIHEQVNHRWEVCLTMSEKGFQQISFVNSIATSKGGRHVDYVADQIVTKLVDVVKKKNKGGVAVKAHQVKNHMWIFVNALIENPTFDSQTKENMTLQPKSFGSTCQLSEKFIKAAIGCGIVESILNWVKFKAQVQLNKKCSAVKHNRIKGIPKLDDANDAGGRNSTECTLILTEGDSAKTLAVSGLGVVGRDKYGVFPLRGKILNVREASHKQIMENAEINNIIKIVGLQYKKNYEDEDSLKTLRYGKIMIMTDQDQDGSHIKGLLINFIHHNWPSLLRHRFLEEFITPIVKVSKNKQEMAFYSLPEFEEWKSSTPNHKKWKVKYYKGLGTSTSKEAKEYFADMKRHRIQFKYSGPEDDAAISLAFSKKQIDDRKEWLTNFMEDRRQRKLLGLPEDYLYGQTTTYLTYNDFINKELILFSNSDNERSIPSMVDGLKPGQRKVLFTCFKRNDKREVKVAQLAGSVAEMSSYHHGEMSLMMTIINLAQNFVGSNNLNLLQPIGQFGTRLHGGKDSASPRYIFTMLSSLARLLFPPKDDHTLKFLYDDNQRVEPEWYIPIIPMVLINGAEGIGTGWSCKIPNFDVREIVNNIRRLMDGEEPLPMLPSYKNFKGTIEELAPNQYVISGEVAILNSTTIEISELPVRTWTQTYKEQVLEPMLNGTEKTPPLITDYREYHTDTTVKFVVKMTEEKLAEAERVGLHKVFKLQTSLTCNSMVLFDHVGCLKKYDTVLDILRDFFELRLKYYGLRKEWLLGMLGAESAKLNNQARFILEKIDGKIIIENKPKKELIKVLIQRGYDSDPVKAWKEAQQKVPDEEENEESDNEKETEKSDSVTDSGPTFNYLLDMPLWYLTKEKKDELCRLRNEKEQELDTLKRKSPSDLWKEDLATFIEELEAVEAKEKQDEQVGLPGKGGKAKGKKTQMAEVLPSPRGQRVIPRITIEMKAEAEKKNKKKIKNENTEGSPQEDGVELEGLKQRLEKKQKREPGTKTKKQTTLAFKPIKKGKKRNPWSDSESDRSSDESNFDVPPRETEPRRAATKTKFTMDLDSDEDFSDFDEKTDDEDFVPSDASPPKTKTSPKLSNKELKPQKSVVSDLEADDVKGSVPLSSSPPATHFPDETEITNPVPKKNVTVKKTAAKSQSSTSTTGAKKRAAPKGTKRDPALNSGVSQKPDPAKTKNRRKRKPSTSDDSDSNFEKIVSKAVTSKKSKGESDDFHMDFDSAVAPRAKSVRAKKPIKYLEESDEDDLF

SMILES	% remaining c-kit activity (10 μM) (c-Kit) [%]	% remaining CK2 activity (10 μM) (CK2α) [%]	IC50 (CK2α) [nM]	cell cycle effect (U373 cells [1])	reduction of U373 cell proliferation (U373 cells [2])	apoptotic cells (HeLa cells [3])	cell cycle effect (HeLa cells [3])	phosphorylated CK2 reporter isoform (CK2)	inhibition of HeLa cell proliferation (HeLa cells [4])	% remaining topoisomerase II activity (10 μM) (topoisomerase IIα) [%]	% DNA intercalation (10 μM) [5] [%]	inhibition at 5 µM (U373 cells [6]) [%]	tumor size, times smaller than DMSO group (U373 cells [7]; 15 days post first compound injection, i.p. 0.14 mg/injection) [times]	tolerability (U373 cells [7]; at the doses applied)	variations in body weight (U373 cells [7]; i.p. 0.14 mg/injection, 3 times weekly for 2 weeks)	tumor incidence compared to DMSO (U373 cells [7]; i.p. 0.14 mg/injection, 3 times weekly for 2 weeks, all time points)
Cc1cnc(Cl)c2c1[nH]c1ccc3cc(O)ccc3c12 [Compound 2]	16.9	3.5	670	cell cycle arrest with a substantial accumulation in G2/M-phase	potent to reduce cell proliferation	concomitant increase of apoptotic cells	cell cycle arrest with a substantial accumulation in G2/M-phase	disappeared in a dose-dependent manner	strong inhibition of tumour cell proliferation even at low doses	77	66.4					
Cc1cnc(Cl)c2c1[nH]c1c3ccc(O)cc3ccc12 [Compound 1]	60.4	1.4	1500	cell cycle arrest with a substantial accumulation in G2/M-phase	potent to reduce cell proliferation	concomitant increase of apoptotic cells	cell cycle arrest with a substantial accumulation in G2/M-phase	disappeared in a dose-dependent manner	strong inhibition of tumour cell proliferation even at low doses	106.8	62.0	50	4.7	well tolerated	not statistically significant	significantly reduced
